Test results: patent EP0498899A1, “Use of N-(mercaptoacyl)-amino acids as dopaminergic und gonadoptropic medicaments” (Weth, Gosbert Dr. med., Dr. rer. nat., priority 1990, dated 1992)

Columns and labels:
Dopamin = assay: Determination of dopamine in blood plasma of patients after administration (method of G. Weth); type: in vivo, Patienten; details: for Dopamin MW: 25 mg Captopril, mean of 12 patients, value at time 0: 110
Text: (§1) Die Dopaminbestimmung wurde nach G. Weth, "Das Verhalten der Neurotransmitter....", Dissertation, Würzburg, 1987, S. 123-138, durchgeführt. Die Bestimmung von Prolaktin wurde radioimmunologisch nach den Methoden von P. Hwang, H. Guyda, H. Friesen, Proc. Nat. Sci. (USA) 1971, 68/8, S.1902-06 durchgeführt.
(§2) Für die Untersuchungen wurden 2x12 Patienten (Alter 75±10 Jahre), die unter Durchblutungsstörungen, sowohl peripheren als auch zentralen, litten, herangezogen. […]
Die Bestimmung der Dopamin- und Prolaktinwerte wurde wie folgt vorgenommen. In angegebenen Zeitabschnitten von 15, 30, 60 und 120 Minuten wurden dem Patienten je 5 ml Blut entnommen und in speziell präparierte Vakuum-Container, die Glutathion und EDTA enthielten, gegeben. Das Blut wurde sofort auf 2 °C abgekühlt und bei 2 °C zentrifugiert. Das überstehende Blutplasma wurde bis zur Dopamin- und Prolaktinbestimmung bei minus 80 °C tiefgefroren.
(§3) In den Tabellen sind die Ergebnisse der vorstehend angeführten pharmakologischen Untersuchungen zusammengestellt. Die Dimensionsangaben betragen für Dopamin pg/ml bzw. ng/l und für Prolaktin ng/ml.

Prolaktin = assay: Radioimmunological determination of prolactin in blood plasma of patients after administration; type: in vivo, Patienten; details: for Prolaktin MW: 25 mg Captopril, mean of 12 patients; for Prolaktinsenkung (Effekt): Fig. 2, result in words
Text: as §1, §2
Die Bestimmung der Dopamin- und Prolaktinwerte wurde wie folgt vorgenommen. […] Das Blut wurde sofort auf 2 °C abgekühlt und bei 2 °C zentrifugiert. Das überstehende Blutplasma wurde bis zur Dopamin- und Prolaktinbestimmung bei minus 80 °C tiefgefroren.
as §3

With `C[C@H](CS)C(=O)N1CCC[C@H]1C(=O)O` [Captopril] the “Höhepunkt des Anstiegs von Dopamin (time)” value (Dopamin; 25 mg Captopril oral per patient (mean weight 60 kg), Fig. 1) was about 60 min, the “Dopamin MW” value (Dopamin; 15 min after dosing) was 163 pg/mL and the “Dopamin MW” value (Dopamin; 30 min after dosing) was 210 pg/mL. The “Dopamin MW” value (Dopamin; 60 min after dosing) was 291 pg/mL, the “Dopamin MW” value (Dopamin; 90 min after dosing) was 250 pg/mL and the “Dopamin MW” value (Dopamin; 120 min after dosing) was 211 pg/mL. The “Maximum der Dopaminfreisetzung (time)” value (Dopamin; 12,5 mg Captopril, Fig. 3) was 60 min, the “Anstieg von Dopamin” value (Dopamin; 15 min after 25 mg Captopril oral per patient (mean weight 60 kg), Fig. 1, result in words) was “signifikanten Anstieg” and the “Anstieg von Dopamin” value (Dopamin; 30 min after 25 mg Captopril, result in words) was “hochsignifikanten Anstieg”. For the same compound, the “Anstieg (Dopaminfreisetzung)” value (Dopamin; 30 min after 12,5 mg Captopril, Fig. 3, result in words) was “signifikant”, the “Prolaktin MW” value (Prolaktin; 15 min after dosing, value at time 0: 14,3) was 13,6 ng/ml and the “Prolaktin MW” value (Prolaktin; 30 min after dosing, value at time 0: 14,8) was 12,3 ng/ml. The “Prolaktin MW” value (Prolaktin; 60 min after dosing, value at time 0: 14,8) was 9,0 ng/ml, the “Prolaktin MW” value (Prolaktin; 90 min after dosing, value at time 0: 14,8) was 8,4 ng/ml and the “Prolaktin MW” value (Prolaktin; 120 min after dosing, value at time 0: 14,8) was 7,9 ng/ml. For the same compound, the “Prolaktinsenkung (Effekt)” value (Prolaktin; 15 min after 25 mg Captopril oral per patient (mean weight 60 kg)) was “signifikanter” and the “Prolaktinsenkung (Effekt)” value (Prolaktin; 60 min after 25 mg Captopril oral per patient (mean weight 60 kg)) was “hochsignifikanter”.
